Measurements as given in ChEMBL document CHEMBL3244275, “Synthesis and antitumor activity of 1,2-dihydro-1-(2-deosy-beta-D-erythro-pentofuranosyl)-2-oxo-5-methylpyrazine 4-oxide, a structural analogue of thymidine” (J Med Chem, 1977).

How the values were obtained:
L1210 [1] = assay: Antitumor activity against mouse L1210 cells allografted in DBA/2 Ha mouse assessed as increase in life span of host at 200 mg/kg, ip qd for 6 days relative to control; type: functional; settings: route intraperitoneal
L1210 [2] = assay: Growth inhibition of mouse L1210 cells at inhibitor/deoxyuridine ratio 2 after 40 hrs by trypan blue exclusion assay; type: functional
L1210 [3] = assay: Growth inhibition of mouse L1210 cells at inhibitor/thymidine ratio 50 after 40 hrs by trypan blue exclusion assay; type: functional
L1210 [4] = assay: Antitumor activity against mouse L1210 cells allografted in DBA/2 Ha mouse assessed as increase in life span of host at 400 mg/kg, ip qd for 6 days relative to control; type: functional; settings: route intraperitoneal
L1210 [5] = assay: Growth inhibition of mouse L1210 cells at 9 x 10^-7 M after 40 hrs by trypan blue exclusion assay; type: functional; settings: L1210, 40 h, read-out: GI
Enterococcus faecium = assay: Antibacterial activity against Streptococcus faecium at 8 x 10^-5 M; type: functional; settings: read-out: GI
Mus musculus = assay: Toxicity in mouse L1210 cells allografted DBA/2 Ha mouse assessed as overt signs of toxicity at 100 to 400 mg/kg, ip qd for 6 days; type: organism-based; parameters: dose 100-400 mg/kg, route intraperitoneal; settings: in vivo, 144 h
L1210 [6] = assay: Antitumor activity against mouse L1210 cells allografted in DBA/2 Ha mouse assessed as increase in life span of host at 100 mg/kg, ip qd for 6 days relative to control; type: functional; settings: route intraperitoneal
L1210 [7] = assay: Growth inhibition of mouse L1210 cells at inhibitor/cytidine ratio 0.02 after 40 hrs by trypan blue exclusion assay; type: functional
Escherichia coli [8] = assay: Antibacterial activity against Escherichia coli at 1 x 10^-3 M; type: functional; settings: read-out: GI
L1210 [9] = assay: Growth inhibition of mouse L1210 cells at inhibitor/deoxycytidine ratio 0.2 after 40 hrs by trypan blue exclusion assay; type: functional
L1210 [10] = assay: Growth inhibition of mouse L1210 cells at inhibitor/uridine ratio 0.04 after 40 hrs by trypan blue exclusion assay; type: functional
Escherichia coli [11] = assay: Antibacterial activity against Escherichia coli K-12 at 1 x 10^-3 M; type: functional; settings: read-out: GI

For `Cc1cn([C@H]2C[C@H](O)[C@@H](CO)O2)c(=O)c[n+]1[O-]`, the Activity (L1210 [1]) was 30%, the “growth inhibition (GI)” value (L1210 [2]) was 50% and the “growth inhibition (GI)” value (L1210 [3]) was 50%. The Activity (L1210 [4]) was 55%, the inhibition of growth at 0.9 µM (L1210 [5]) was 50% and the inhibition of growth at 80 µM (Enterococcus faecium) was 50%. For the same compound, the Activity (Mus musculus) was “Non-toxic”, the Activity (L1210 [6]) was 18% and the “growth inhibition (GI)” value (L1210 [7]) was 50%. For the same compound, the inhibition of growth at 1000 µM (Escherichia coli [8]) was 20%, the “growth inhibition (GI)” value (L1210 [9]) was 50% and the “growth inhibition (GI)” value (L1210 [10]) was 50%. For the same compound, the inhibition of growth at 1000 µM (Escherichia coli [11]) was 30%.
